The IC50 is the concentration that gives 50% inhibition.

Test [1] relates to JIMT-1 human breast cancer cell line. The test can be described thus: Cell viability assay (SRB) in JIMT-1. The class given is cell-based. The following applies: 72 hours after treatment, read-out: JIMT1 IC50. A digest of the protocol: (§1)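 JIMT-1 (3×10^3 cells/well) and HCT-116 (4×10^3 cells/well) cells were seeded and treated with inhibitors at several concentrations 24 h later. Viability was read by sulforhodamine B staining 72 h after treatment. JIMT-1 was grown in DMEM and HCT-116 in McCoy's 5A, both with FBS.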

For test [2], the system named is HCT-116 human colon carcinoma cell line. Kind of test: Cell viability assay (SRB) in HCT-116. The class given is cell-based. The following applies: 72 hours after treatment, read-out: HCT116 IC50. The procedure, abridged:
as §1

For `C[C@H]1CN(c2nccc(Nc3cc(-c4ccc(OC(F)F)cc4)n[nH]3)n2)C[C@H](C)O1` [Compound 241, N-(3-(4-(difluoromethoxy)phenyl)-1H-pyrazol-5-yl)-2-((25,6S)-2,6-dimethylmorpholino)pyrimidin-4-amine], the IC50 in test [1] was found to be 0.046 µM; in test [2] it was 1.81 µM.
For the molecule `FC(F)Oc1ccc(-c2cc(Nc3ccnc(N4CCCC4)n3)[nH]n2)cc1` [Compound 242, N-(3-(4-(difluoromethoxy)phenyl)-1H-pyrazol-5-yl)-2-(pyrrolidin-1-yl)pyrimidin-4-amine], the IC50 in test [1] was determined as 0.11 µM; in test [2] it was 1.49 µM.
As to `FC(F)Oc1ccc(-c2cc(Nc3ccnc(N4CCCCC4)n3)[nH]n2)cc1` [Compound 243, N-(3-(4-(difluoromethoxy)phenyl)-1H-pyrazol-5-yl)-2-(piperidin-1-yl)pyrimidin-4-amine], the concentration for half-maximal inhibition (IC50) in test [1] is 0.017 µM; in test [2], 0.053 µM.
Consider `FC(F)Oc1ccc(-c2cc(Nc3ccnc(N4CCC4)n3)[nH]n2)cc1` [Compound 244, 2-(azetidin-1-yl)-N-(3-(4-(difluoromethoxy)phenyl)-1H-pyrazol-5-yl)pyrimidin-4-amine], for which the concentration for half-maximal inhibition (IC50) in test [1] was determined as 0.046 µM; in test [2], 1.12 µM.
With `CC1CN(c2nccc(Nc3cc(-c4ccc(OC(F)F)cc4)n[nH]3)n2)C1` [Compound 245, N-(3-(4-(difluoromethoxy)phenyl)-1H-pyrazol-5-yl)-2-(3-methylazetidin-1-yl)pyrimidin-4-amine], the IC50 in test [1] is 0.047 µM; in test [2], ≥ 10 µM.
Consider `FC1CN(c2nccc(Nc3cc(-c4ccc(OC(F)F)cc4)n[nH]3)n2)C1` [Compound 246, N-(3-(4-(difluoromethoxy)phenyl)-1H-pyrazol-5-yl)-2-(3-fluoroazetidin-1-yl)pyrimidin-4-amine], for which the IC50 is 0.071 µM in test [1] and ≥ 10 µM in test [2].
As to `CC1(C)CN(c2nccc(Nc3cc(-c4ccc(OC(F)F)cc4)n[nH]3)n2)C1` [Compound 247, N-(3-(4-(difluoromethoxy)phenyl)-1H-pyrazol-5-yl)-2-(3,3-dimethylazetidin-1-yl)pyrimidin-4-amine], the IC50 in test [1] is 0.142 µM; in test [2] it was ≥ 10 µM.
For `CC1(F)CN(c2nccc(Nc3cc(-c4ccc(OC(F)F)cc4)n[nH]3)n2)C1` [Compound 248, N-(3-(4-(difluoromethoxy)phenyl)-1H-pyrazol-5-yl)-2-(3-fluoro-3-methylazetidin-1-yl)pyrimidin-4-amine], the results for the IC50 in test [1] and in test [2] were 1.56 µM and ≥ 10 µM, respectively.
Regarding `FC(F)Oc1ccc(-c2cc(Nc3ccnc(N4CC(F)(F)C4)n3)[nH]n2)cc1` [Compound 249, 2-(3,3-difluoroazetidin-1-yl)-N-(3-(4-(difluoromethoxy)phenyl)-1H-pyrazol-5-yl)pyrimidin-4-amine], the IC50 was 0.305 µM in test [1] and ≥ 10 µM in test [2].
For the molecule `FC(F)Oc1ccc(-c2cc(Nc3ccnc(N4CCC(F)(F)C4)n3)[nH]n2)cc1` [Compound 252, N-(3-(4-(difluoromethoxy)phenyl)-1H-pyrazol-5-yl)-2-(3,3-difluoropyrrolidin-1-yl)pyrimidin-4-amine], the half-inhibitory concentration (IC50) stood at 0.122 µM in test [1] and 1.26 µM in test [2].
On the same counts, the results for `FC(F)Oc1ccc(-c2cc(Nc3ccnc(N4CCC(F)(F)CC4)n3)[nH]n2)cc1` [Compound 253, N-(3-(4-(difluoromethoxy)phenyl)-1H-pyrazol-5-yl)-2-(4,4-difluoropiperidin-1-yl)pyrimidin-4-amine] are 0.148 µM and 1.56 µM.
For `FC(F)Oc1ccc(-c2cc(Nc3ccnc(N4CCCOCC4)n3)[nH]n2)cc1` [Compound 255, N-(3-(4-(difluoromethoxy)phenyl)-1H-pyrazol-5-yl)-2-(1,4-oxazepan-4-yl)pyrimidin-4-amine], the values for the concentration for half-maximal inhibition (IC50) in test [1] and in test [2] were 0.279 µM and 0.312 µM, respectively.
As to `FC(F)Oc1ccc(-c2cc(Nc3ccnc(N4C5CCC4COC5)n3)[nH]n2)cc1` [Compound 259, 2-(3-oxa-8-azabicyclo[3.2.1]octan-8-yl)-N-(3-(4-(difluoromethoxy)phenyl)-1H-pyrazol-5-yl)pyrimidin-4-amine], the figures for the concentration for half-maximal inhibition (IC50) in test [1] and in test [2] were 0.065 µM and ≥ 10 µM, respectively.
`FC(F)Oc1ccc(-c2cc(Nc3ccnc(N4CC5CCC(C4)O5)n3)[nH]n2)cc1` [Compound 260, 2-(8-oxa-3-azabicyclo[3.2.1]octan-3-yl)-N-(3-(4-(difluoromethoxy)phenyl)-1H-pyrazol-5-yl)pyrimidin-4-amine]: the values for the IC50 in test [1] and in test [2] were 0.648 µM and 8.98 µM, respectively.
Regarding `FC(F)Oc1ccc(-c2cc(Nc3ccnc(N4C[C@@H]5C[C@H]4CO5)n3)[nH]n2)cc1` [Compound 261, 2-((1S,4S)-2-oxa-5-azabicyclo[2.2.1]heptan-5-yl)-N-(3-(4-(difluoromethoxy)phenyl)-1H-pyrazol-5-yl)pyrimidin-4-amine], the IC50 came out at 0.4 µM in test [1] and 7.2 µM in test [2].
In the case of `FC(F)Oc1ccc(-c2cc(Nc3ccnc(N4C[C@H]5C[C@@H]4CO5)n3)[nH]n2)cc1` [Compound 262, 2-((1R,4R)-2-oxa-5-azabicyclo[2.2.1]heptan-5-yl)-N-(3-(4-(difluoromethoxy)phenyl)-1H-pyrazol-5-yl)pyrimidin-4-amine], the IC50 in test [1] was 0.329 µM; in test [2], ≥ 10 µM.
On to `C[C@H]1COCCN1c1nccc(Nc2cc(-c3ccc(OC(F)F)cc3)n[nH]2)n1` [Compound 263, (S)-N-(3-(4-(difluoromethoxy)phenyl)-1H-pyrazol-5-yl)-2-(3-methylmorpholino)pyrimidin-4-amine], for which the IC50 in test [1] is 0.03 µM; in test [2], 0.079 µM.
As to `C[C@@H]1COCCN1c1nccc(Nc2cc(-c3ccc(OC(F)F)cc3)n[nH]2)n1` [Compound 264, (R)-N-(3-(4-(difluoromethoxy)phenyl)-1H-pyrazol-5-yl)-2-(3-methylmorpholino)pyrimidin-4-amine], the IC50 came out at 0.127 µM in test [1] and 0.302 µM in test [2].
With `COc1ccc(-c2cc(N(C)c3ccnc(N4C[C@@H](C)O[C@@H](C)C4)n3)[nH]n2)c(F)c1` [Compound 275, 2-((2R,6S)-2,6-dimethylmorpholino)-N-(3-(2-fluoro-4-methoxyphenyl)-1H-pyrazol-5-yl)-N-methylpyrimidin-4-amine], the IC50 in test [1] was 0.013 µM; in test [2], 0.046 µM.
On to `C[C@@H]1CN(c2nccc(N(C)c3cc(-c4ccc(OCF)cc4)n[nH]3)n2)C[C@H](C)O1` [Compound 277, 2-((2R,6S)-2,6-dimethylmorpholino)-N-(3-(4-(fluoromethoxy)phenyl)-1H-pyrazol-5-yl)-N-methylpyrimidin-4-amine], for which the results for the IC50 in test [1] and in test [2] were 0.204 µM and 0.269 µM, respectively.
On to `COc1ccc(-c2cc(Nc3nc(N4C[C@@H](C)O[C@@H](C)C4)ncc3Cl)[nH]n2)c(F)c1` [Compound 281, 5-chloro-2-((2R,6S)-2,6-dimethylmorpholino)-N-(3-(2-fluoro-4-methoxyphenyl)-1H-pyrazol-5-yl)pyrimidin-4-amine], for which the IC50 in test [1] worked out at 0.131 µM; in test [2], 0.436 µM.
On the same counts, the results for `COc1ccc(-c2cc(Nc3nc(N4C[C@@H](C)O[C@@H](C)C4)ncc3F)[nH]n2)c(F)c1` [Compound 282, 2-((2R,6S)-2,6-dimethylmorpholino)-5-fluoro-N-(3-(2-fluoro-4-methoxyphenyl)-1H-pyrazol-5-yl)pyrimidin-4-amine] are 0.045 µM and 0.046 µM.

The record behind these values is US20240374590A1, “COMPOSITIONS AND METHODS FOR TREATING CANCER” (A2A PHARMACEUTICALS, INC., priority 2021, published 2024).
